According to patent US20240261434A1, “PRODUCTS AND METHODS FOR TREATING MUSCULAR DYSTROPHY” (priority 2020, published 2024):

Tests used:
Assay type in all cases: in vivo, mouse
utrophin = test: Western blot quantification of utrophin in muscles of Dup2 mice; conditions: adult Dup2 mice, tail vein, 3 months post-injection
Method: (§1) 150 μl of this lysis buffer was used for 100 mg of tissue. This solution was then put on ice for 30min, and then tissue was lysed using a metal bead (1 min at 30 Hz, TissueLyser II, Qiagen). These last two steps were repeated, and then the lysate was centrifuged at 14000 g for 20min at 4° C. The supernatant was mixed with a classical 4× Laemmli buffer and boiled for 5 min at 100° C. 50-150 μg of protein were run on a precast 3-8% Tris-Acetate gel (NuPage, Life Science) for 16 h at 80V (4° C.). Using a nitrocellulose membrane, gels were transferred overnight at 300 mA using a cooling device. […] All antibodies were diluted in half Odyssey blocking buffer (Licor®) and half Tris buffered saline with Tween (TBST) (Sigma-Aldrich). Following secondary incubation, 5×5 min with 0.1% Tween washes were performed followed by a ddH2O rincing. Both IRDye@ signals were simultaneously scanned using the Odyssey® CLx (LI-COR). The signals for both dystrophin, utrophin and α-actinin were quantified using ImageJ.

DMD exon 2 = test: RT-PCR quantification of DMD exon 2 skipping (Dup2, WT, Del2 transcripts) in muscles of Dup2 mice; conditions: adult Dup2 mice, tail vein, 3 months post-injection
Method: Total RNA was isolated from tissue samples and analyzed by reverse transcription (RT) followed by PCR. […] For each sample, 1 μg of total RNA was used to generate cDNA by RT-PCR using random hexamer primers according to the manufacturer's protocol (Thermo Scientific, Ferk1672) and then used for a single PCR of 35 cycles using 1 μg of RNA and a mixture of random hexamer and oligo(dT) for each RT reaction. mRNA was then amplified via primers specific to the DMD 5′UTR and the exon 3-4 junction as follows.
Following electrophoresis, PCR products were electrophoresed on a 2% agarose gel and imaged using a Gel Logic 200 Imaging System (Kodak). Quantification of Dup2, WT or Del2 transcript was performed using ImageJ (an open source platform for scientific image analysis), and each band plotted in Prism (GraphPad) as a percentage of the overall dystrophin transcript. The images were then used to quantify the relative amount of each transcript using ImageJ software 14. Using the “Gel” function of ImageJ, a box was drawn in each lane around the area where the three possible transcripts would be. A histogram of each sample was then generated and the area under the curve was measured. The sum of the area under the three peaks were added together and then individual peak area was measured as a percentage of the total.

Dup2 mice [1] = test: Quantification of centronucleation of myofibers (H&E) in Dup2 mice; conditions: adult Dup2 mice, tail vein, 3 months post-injection
Method: (§2) To induce muscle injury for Evans blue dye (EBD) analysis, a treadmill exercise program was used. In the first week, four month old mice were trained three times on a treadmill at 10° inclination, running as follows: 0 m/min for 2 min, 5 m/min for 5 min, 10 m/min for 15 min, and 12 m/min for 5-10 min. In the following three weeks (3×/week), mice ran on the treadmill at 2 m/min for 30 min. Before mice euthanasia, the treadmill was used at the same inclination at 5 m/min for 5 min. Following this initial warming up, the speed was increased to +1 m/min until exhaustion. EBD solution (10 mg/ml in PBS) was filtered and injected intraperitoneally (IP) into mice after the last treadmill exercise, and mice were sacrificed 24 hrs later. For analysis, muscle sections were stained with α-laminin to distinguish myofibers, and the percentage of positive Evans blue fibers (labeled in red) were then quantified using ImageJ software. For quantification of centronucleation, H&E staining was performed using standard technique, and fiber counting was performed manually using ImageJ. For both analyses, three sections were processed and counted for each animal.
(§3) H&E staining was performed using standard protocol. Quantification of both centronucleation and Evans blue dye (EBD) was performed manually using ImageJ. Three sections were processed and counted for each animal.

dystrophin = test: Western blot / immunoblot quantification of dystrophin in muscles of Dup2 mice; conditions: for Western blot quantification: % of dystrophin: percent of WT, adult Dup2 mice, tail vein, 3 months post-injection
Method: as §1
With some experiments, 25×40 μm thick sections of cryopreserved tissues were used for western blotting to quantify amount of restored dystrophin protein. Extracted protein was run on 3-8% Tris-Acetate protein gels and visualized using specific primary antibodies against dystrophin or α-actinin the corresponding Licor secondary antibodies IRDye 680 or IRDye 800 (as set out above). Blots were imaged using the Licor Odyssey CLx and quantified using ImageJ.
Steel beads were added to the tissue, which was homogenized using the Tissuelyser II (Qiagen) for 2 min at a rate of 30/sec. Lysates were then incubated on ice and spun down; the supernatant was removed and stored at −80═ C. until immunoblotting, and the cell debris was discarded. For immunoblotting, 50 μg C57BL/6 muscle tissue protein or 150 μg Dup2 muscle tissue protein was loaded with a loading dye (1× laemmli) on a 3-8% Tris Acetate gel (Life Technologies, EA0378BOX). […] The membrane was scanned on the Odyssey CLx and imaged using Image Studio 14. Single color channel images were using Image Studio and then imported into ImageJ for quantification. For each channel, a box was drawn in each lane around the protein band using the “Gel” function in ImageJ. A histogram of each sample was then generated and the area under the curve was measured. Dystrophin was normalized to α-actinin by dividing the area of the dystrophin band by the area of the α-actinin band for each sample. If the same sample was run on multiple immunoblots, the median was taken to represent that particular sample. The C57BL/6 measurement was determined by taking the mean of all wild type samples. Both treated Dup2 and control Dup2 measurements were reported as a percentage of the wild type (n≥3).

Dup2 mice [2] = test: Evans blue dye (EBD) positive fibers after exhaustive treadmill exercise in Dup2 mice; conditions: adult Dup2 mice, tail vein
Method: as §2, §3

[3] = qPCR quantification of viral vector genomes (biodistribution) in muscles of Dup2 mice; conditions: adult Dup2 mice, tail vein, 3 months post-injection
Method: Physical titer determination was determined based on degradation of non-encapsidated DNA following digestion of viral capsids. Released encapsidated DNA was quantified by qPCR to determine the DNAase Resistant Particle (DRP) titer. The DRP titer (also referred to as vector genomes [vg]) were determined for scAAV9.U7.ACCA or scAAV1.U7-ACCA products using real-time quantitative PCR (qPCR) using dilutions of a linearized plasmid standard containing U7 amplicon as assay standards. The DRP quantitative PCR (qPCR) assay involves serial dilution of the test sample (10^−2 to 10^−5) and sequential digestion with DNase I and Proteinase K, followed by qPCR analysis. DNA detection was accomplished using sequence specific primers targeting a primer/probe combination specific to the construct sequence (probe: 5′-[…]-3′ (SEQ ID NO: 4); Fw primer: 5′-agctcctatgttgttaTCTAGAG-3′ (SEQ ID NO: 5); Rv primer: 5′-[…]-3′ (SEQ ID NO: 6)) and amplified using a fluorescently tagged probe hybridizing to the U7 amplicon. Titration of the encapsidated viral genome were performed using quantitative PCR-based titration method runned on a Prism 7500 Taqman detector system (PE Applied Biosystems).
All tissues and organs for qPCR/Biodistribution studies were placed into sterile tubes, snap-frozen in liquid nitrogen, and kept at <−70° C. qPCR analyses were performed on samples at 1, 3 and 6 months post-injection. 300 ul DNA lysis buffer (0.05M Tris-HCl pH 8, 0.1M NaCl, 0.1M EDTA, 1% SDS) plus 7.5 ul proteinase K were added to sections and incubated at 55° C. overnight. DNA was quantified and 25 ng of DNA was run in triplicate. The same qPCR primers and probe used for vector titration were used to perform the tissue biodistribution qPCR studies. Data were represented as normalized copy number per 1 ug DNA.

[4] = system: tibialis anterior (TA) muscle; test: Force generation and protection from eccentric contractions, tibialis anterior of Dup2 mice; design: Eccentric contraction: % force decrease: scale not given here; conditions: tail vein adult Dup2 mice
Method: Physiologic studies were conducted on TA muscles from 12 week old mice that had been treated with an intramuscular injection of 3.1×10^11 vg at 8 weeks (N≥5 limbs). For systemic studies, the mice were 20-21 weeks old following 12 weeks of treatment (N≥12 limbs). The force study procedure was conducted using a modified version of Hakim's procedure (Hakim et al., J Appl. Physiol. (1985) 2011; 110:1656-1663; Wein et al., Nat. Med. 2014; 20:992-1000). Initial anesthetization of mice was conducted by giving an intraperitoneal injection of a cocktail containing five times their weight (i.e., the weight of the mouse) of 25 mg/mL ketamine and twice their weight of 2.5 mg/ml xylazine. […]
The resting force was set to between 3-4 g for a 10 minute equilibrium period. The TA muscle was then stimulated at the optimal length (Lo, mm) and active tetanic muscle force was recorded to give the absolute force measurement using the Lab View-based DMC program (Aurora Scientific). […] The cross-sectional area measured as mass (g)/(muscle density×ratio of fiber length×Lo) where muscle density is 1.06 mg/mm^3 and the ratio of fiber length in the TA is 0.6 (Burkholder et al., J Morphol 1994; 221:177-190). […] Statistical significance was assessed using a Kruskal-Wallace test assuming nonparametric data in the GraphPad Prism (version 6.03 for Windows, GraphPad Software, San Diego California USA). […]

Compound: C[C@H]1C[C@@H]2[C@H]([C@@H](O)C[C@@]3(C)[C@H]2CC[C@]3(O)C(=O)COC(=O)CCC(=O)[O-])[C@@]2(C)C=CC(=O)C=C12.[Na+] [PDN, 6α-methylprednisolone 21-hemisuccinate sodium salt]
- Western blot quantification: ratio of utrophin/a-actinin (utrophin; DIA): 0.6
- Western blot quantification: ratio of utrophin/a-actinin (utrophin; GAS): 0.2
- Western blot quantification: ratio of utrophin/a-actinin (utrophin; HEART): 0.5
- Western blot quantification: ratio of utrophin/a-actinin (utrophin; TA): 0.3
- Western blot quantification: ratio of utrophin/a-actinin (utrophin; TRI): 0.4
- RT-PCR quantification: % of Del2 transcript (DMD exon 2; DIA): 0%
- RT-PCR quantification: % of Dup2 transcript (DMD exon 2; DIA): 97.7%
- RT-PCR quantification: % of WT transcript (DMD exon 2; DIA): 2.3%
- RT-PCR quantification: % of Del2 transcript (DMD exon 2; GAS): 4.3%
- RT-PCR quantification: % of Dup2 transcript (DMD exon 2; GAS): 86%
- RT-PCR quantification: % of WT transcript (DMD exon 2; GAS): 9.6%
- RT-PCR quantification: % of Del2 transcript (DMD exon 2; HEART): 0%
- RT-PCR quantification: % of Dup2 transcript (DMD exon 2; HEART): 98.3%
- RT-PCR quantification: % of WT transcript (DMD exon 2; HEART): 1.6%
- RT-PCR quantification: % of Del2 transcript (DMD exon 2; TA): 0%
- RT-PCR quantification: % of Dup2 transcript (DMD exon 2; TA): 100%
- RT-PCR quantification: % of WT transcript (DMD exon 2; TA): 0%
- RT-PCR quantification: % of Del2 transcript (DMD exon 2; TRI): 0%
- RT-PCR quantification: % of Dup2 transcript (DMD exon 2; TRI): 98.3%
- RT-PCR quantification: % of WT transcript (DMD exon 2; TRI): 1.7%
- % of centronucleation (Dup2 mice [1]; DIA): 68.55%
- % of centronucleation (Dup2 mice [1]; TA): 71.12%
- Western blot quantification: % of dystrophin (dystrophin; DIA): 9.2%
- dystrophin expression (dystrophin; Dup2 mice, PDN alone): does not induce dystrophin expression
- Western blot quantification: % of dystrophin (dystrophin; GAS): 2.1%
- Western blot quantification: % of dystrophin (dystrophin; HEART): 13.7%
- Western blot quantification: % of dystrophin (dystrophin; TA): 4.83%
- Western blot quantification: % of dystrophin (dystrophin; TRI): 4.8%
- % of EBD positive fibers (Dup2 mice [2]; DIA): 12.31%
- % of EBD positive fibers (Dup2 mice [2]; GAS): 3.04%
- % of EBD positive fibers (Dup2 mice [2]; TA): 8.14%
- % of EBD positive fibers (Dup2 mice [2]; TRI): 2.57%
- viral vector genome quantification ([3]; DIA): 17 vector/ug DNA
- viral vector genome quantification ([3]; GAS): 15 vector/ug DNA
- viral vector genome quantification ([3]; HEART): 188 vector/ug DNA
- viral vector genome quantification ([3]; TA): 39 vector/ug DNA
- viral vector genome quantification ([3]; TRI): 50 vector/ug DNA
- Absolute force: Force (mN) [4]: 1401 mN
- Eccentric contraction: % force decrease ([4]; repeated eccentric contractions): 0.52
